Columns and labels:
Phakosporra pachirrhizi = assay: Example D: fungicidal activity against Phakosporra pachirrhizi (spore germination, 96-well imaging); type: cell-based; conditions: 30 ppm of active ingredient; wild-type spores, 4 hours at 21° C.; read-out: efficacy (inhibition of the fungal germination)
Experimental: Example D: Fungicidal Activity Against Phakosporra pachirrhizi
Cryo-conserved wild-type spores of the biotroph Phakosporra pachirrhizi are humidified in dedicated chamber overnight at 18° C. in the dark. The next day, a solution of spores at 7×10^3 sp/ml is prepared in a water based growth medium (DH2O+0.2 mM MOPS at pH 7+0.01% Tween 20) and spores are distributed in a 96-MTPS (final volume of 200 μL per well) thanks to a dispenser robot. Each molecule is tested at 10 doses (from 30 to 0.002 ppm final concentration) and accordingly 1.2 μL of each dilution is transferred in dedicated well to end-up with a final concentration of 0.6% DMSO. Wild-type spores and molecules are incubated for 4 hours at 21° C., and 6 images par well are then acquired with Transmitted Light images (Image Xpress Micro microscope, Molecular Devices, Objective 10λ, 6 images per well). Detection and quantification of the number of germinated spores per image is performed with a dedicated in-house developed algorithm (MetaXpress software, Molecular Devices).

[1] = test system: Colletotrichum lindemuthianum; assay: Example E: Colletotrichum lindemuthianum in vitro cell test; type: cell-based; conditions: 144 h, 20 ppm of active ingredient, liquid culture, 6 days incubation, read-out: efficacy (inhibition of fungal growth)
Experimental: Example E: Colletotrichum lindemuthianum In Vitro Cell Test
• Solvent: DMSO Culture medium: 14.6 g anhydrous D-glucose (VWR), 7.1 g Mycological Peptone (Oxoid), 1.4 g granulated Yeast Extract (Merck), QSP 1 liter • Inoculum: spores suspension
Active ingredients were solubilized in DMSO and the solution used to prepare the required range of concentrations. The final concentration of DMSO used in the assay was 1%.
A spore suspension of C. lindemuthianum was prepared and diluted to the desired spore density.
The active ingredients were evaluated for their ability to inhibit spores germination and mycelium growth in liquid culture assay. The compounds were added in the desired concentration to the culture medium with spores. After 6 days incubation, fungi-toxicity of compounds was determined by spectrometric measurement of mycelium growth. Inhibition of fungal growth was determined by comparing the absorbance values in wells containing the active ingredient with the absorbance in control wells without active ingredient.

[2] = LogP by HPLC on reversed phase columns (EEC directive 79/831 Annex V.A8); type: physicochemical; conditions: reversed phase HPLC column; method [a]: LC-UV, acidic range, 0.1% formic acid in water and acetonitrile as eluent
Experimental: [table] If more than one Log P value is available within the same method, all the values are given and separated by “+”. […] Lambda-max-values were determined using UV-spectra from 200 nm to 400 nm and the peak values of the chromatographic signals.

chromatographic logP [2]: 3.79
SMILES: CON(C(C)=O)C1CCCc2cc(-c3noc(C(F)(F)F)n3)ccc21 (stereo not drawn) [Compound I-020, N-Methoxy-N-{6-[5-(trifluoromethyl)-1,2,4-oxadiazol-3-yl]-1,2,3,4-tetrahydronaphthalen-1-yl}acetamide]
inhibition at 30 ppm (Phakosporra pachirrhizi): 70 to 79%
inhibition at 20 ppm [1]: 90 to 100%

Source: patent US20210009541A1, “FUNGICIDAL OXADIAZOLES” (Bayer Aktiengesellschaft, priority 2018, published 2021)
